Experimental data: patent US20100196282A1, “OPTICAL IMAGING AGENTS” (priority 2007, published 2010)
Where a SMILES comes first, the peptide text is derived from it. Bridges are numbered along the chain shown (N, C = ends). The star is where a group is joined. X8 = CC1=CC(C)(C)N(CCCS(=O)(=O)O)c2cc3c(cc21)/C(=C/C=C/C1=[N+](CCCS(=O)(=O)[O-])c2ccc(S(=O)(=O)O)cc2C1(C)CCCC(=O)*)C=C(C(C)(C)C)O3; X7 = CCN1c2cc3c(cc2C(C)=CC1(C)C)/C(=C/C=C/C1=[N+](CCCS(=O)(=O)[O-])c2ccc(S(=O)(=O)O)cc2C1(C)CCCC(=O)*)C=C(C(C)(C)C)O3; X2 = CCN1c2cc3c(cc2C(C)=CC1(C)C)/C(=C/C=C/C1=[N+](CCCCCC(=O)*)c2ccc(S(=O)(=O)[O-])cc2C1(C)C)C=C(C(C)(C)C)O3; X3 = CCN(CCCS(=O)(=O)O)c1ccc2c(c1)OC(C(C)(C)C)=C/C2=C\C=C\C1=[N+](CCCCCC(=O)*)c2ccc(S(=O)(=O)[O-])cc2C1(C)C; X9 = CCN(CC)c1ccc2c(c1)OC(C(C)(C)C)=C/C2=C\C=C\C1=[N+](CCCS(=O)(=O)[O-])c2ccc(S(=O)(=O)O)cc2C1(C)CCCC(=O)*

Key:
[1] = tested on: HT-29 human colon carcinoma tumour (c-Met expressing); experiment: In vivo optical imaging of HT-29 tumour-bearing nude mice; set-up: species or system mouse; conditions: HT-29 s.c. tumours in female BALB c/A nude mice, i.v., 635 nm excitation
From the text: Female BALB c/A nude (Born) mice were used in the study. The use of the animals was approved by the local ethics committee. BALB c/A nude is an inbred immunocompromised mouse strain with a high take rate for human tumours as compared to other nude mice strains. The mice were 8 weeks old upon arrival and with a body weight of approx. 20 grams at the start of the study. The animals were housed in individually ventilated cages (IVC, Scanbur BK) with HEPA filtered air. The animals had ad libitum access to “Rat and Mouse nr. 3 Breeding” diet (Scanbur BK) and tap water acidified by addition of HCl to a molar concentration of 1 mM (pH 3.0).
The colon cancer cell HT-29 is derived from human colon carcinomas and is reported to express c-Met according to Zeng et al [Clin. Exp. Metastasis, 21, 409-417. (2004)]. The cell line was proven to be tumorigenic when inoculated subcutaneously into nude mice [Flatmark et al, Eur. J. Cancer 40, 1593-1598 (2004)].
HT-29 cells were grown in McCoy's 5a medium (Sigma #M8403) supplemented with 10% fetal bovine serum and penicillin/streptomycin. Stocks were made at passage number four (P4) and frozen down for storage in liquid nitrogen at 10^7 cells/vial in the respective culture media containing 5% DMSO. On the day of the transplantation, the cells were thawed quickly in 37° C. water bath (approx. 2 min), washed and resuspended in PBS/2% serum (centrifugation at 1200 rpm for 10 min). Thorough mixing of cells in the vials was ensured every time the cells were aspirated into the dosing syringe. A volume of 0.1 ml of cell suspension was injected s.c. at the shoulder and at the back using a fine bore needle (25 G). The animals were then returned to their cages and the tumours were allowed to grow for 13-17 days. The animals were allowed an acclimatisation period of at least 5 days before the inoculation procedure.
All test substances were reconstituted with PBS from freeze-dried powder. A small stack of white printer paper was imaged to obtain a flat field image which was used to correct for illumination inhomogeneities.
For immobilisation during the optical imaging procedure, the animals were anaesthetized in a coaxial open mask to light surgical level anaesthesia with Isoflurane (typically 1.3-2%), using oxygen as the carrier gas. A small piece of skin (3-5 mm) was removed over parts of the tumour and adjacent muscle using a surgical forceps and fine scissors while the animal was anaesthetized. This was done to measure the signal from tumour and muscle without interference from the overlying skin tissue. The wound was covered by applying a liquid, non-fluorescent bandage spray (3M, MN, USA).
The respiration and body temperature of the animal was monitored with a BioVet system (m2m Imaging Corp, NJ, USA) using a pneumatic sensor underneath the animal and a rectal temperature probe. The BioVet system also supplied external heating using a heating mat set to 40° C. to sustain normal body temperature for the duration of the imaging procedure (2 hours). A Venflon catheter was placed in the tail vein for contrast agent administration. Each animal was given one contrast agent injection. The injected volume was 0.1 ml of test compound followed immediately by a 0.2 ml saline flush. Fluorescence images were acquired just prior to injection and then every 30 seconds for 2 hours.
Imaging was performed through a clinical laparoscope adapted to use a light source to excite the reporter and a filtering system to extract the fluorescence component. […]

human serum albumin [2] = molecular target: T1, human serum albumin (Homo sapiens, UniProt P02768); experiment: in vitro
From the text: Fluorescence polarisation assay was used to examine the affinity binding of the imaging agent towards the cMet target as well as the binding properties related to plasma proteins. The principle of the fluorescence polarisation method can briefly be described as follows:
(§1) The change of the polarization value was used to assess the binding of the Compound to human serum albumin as a low change of polarisation value is associated to low binding being appropriate for in-vivo use.

human serum albumin [3] = molecular target: T1, human serum albumin
human c-Met/Fc chimera = molecular target: T2, human c-Met/Fc chimera (Homo sapiens, UniProt P08581); experiment: Fluorescence polarisation assay, affinity binding to cMet; conditions: 5 nM dye-labelled peptide, c-Met/Fc 0-250 nM, 10 min at 30° C., one-site binding
T2 construct: Fc (immunoglobulin Fc fusion partner); purchased R&D Systems
Description: Monochromatic light passes through a […] polarizing filter and excites fluorescent molecules in the sample. Only those molecules that oriented properly in the vertically polarized plane adsorb light, become excited, and subsequently emit light. The emitted light is measured in both horizontal and vertical planes. The anisotropy value (A), is the ratio between the light intensities following the equation
The fluorescence anisotropy measurements were performed in 384-well microplates in a volume of 10 μL in binding buffer (PBS, 0.01% Tween-20, pH 7.5) using a Tecan Safire fluorescence polarisation plate reader (Tecan, US) at Ex 635/Em 678 nm. The concentration of dye-labelled peptide was held constant (5 nM) and the concentration of the human c-Met/Fc chimera (R&D Systems) was varied from 0-250 nM. Binding mixtures were equilibrated in the microplate for 10 min at 30° C. The observed change in anisotropy was fitted to the equation: […]
where robs is the observed anisotropy, rfree is the anisotropy of the free peptide, rbound is the anisotropy of the bound peptide, Kd is the dissociation constant, cMet is the total c-Met concentration, and P is the total dye-labelled peptide concentration. The equation assumes that the synthetic peptide and the receptor form a reversible complex in solution with 1:1 stoichiometry. Data fitting was done via nonlinear regression using SigmaPlot software to obtain the Kd value (one-site binding).
Compounds 1 to 6 were tested for binding towards human c-Met (Fc chimera).

in vitro = conditions: mouse, plasma
From the text: as §1

T1 sequence (P02768 25-609): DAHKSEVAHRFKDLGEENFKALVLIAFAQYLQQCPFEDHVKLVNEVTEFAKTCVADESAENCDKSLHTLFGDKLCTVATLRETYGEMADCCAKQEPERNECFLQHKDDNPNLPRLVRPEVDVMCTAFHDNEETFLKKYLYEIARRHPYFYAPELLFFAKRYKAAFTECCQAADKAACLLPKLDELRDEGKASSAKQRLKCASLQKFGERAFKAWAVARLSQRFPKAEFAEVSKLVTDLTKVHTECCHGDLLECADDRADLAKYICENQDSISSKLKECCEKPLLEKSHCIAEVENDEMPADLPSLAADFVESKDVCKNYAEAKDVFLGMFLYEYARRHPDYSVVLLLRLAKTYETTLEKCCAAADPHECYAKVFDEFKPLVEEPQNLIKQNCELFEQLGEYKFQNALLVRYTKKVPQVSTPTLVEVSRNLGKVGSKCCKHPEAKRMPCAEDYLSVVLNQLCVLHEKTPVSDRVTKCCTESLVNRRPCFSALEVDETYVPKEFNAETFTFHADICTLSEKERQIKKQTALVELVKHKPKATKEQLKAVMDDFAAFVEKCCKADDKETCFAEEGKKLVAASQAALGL
T2 sequence (P08581 with tags, fused parts or gaps limits assumed): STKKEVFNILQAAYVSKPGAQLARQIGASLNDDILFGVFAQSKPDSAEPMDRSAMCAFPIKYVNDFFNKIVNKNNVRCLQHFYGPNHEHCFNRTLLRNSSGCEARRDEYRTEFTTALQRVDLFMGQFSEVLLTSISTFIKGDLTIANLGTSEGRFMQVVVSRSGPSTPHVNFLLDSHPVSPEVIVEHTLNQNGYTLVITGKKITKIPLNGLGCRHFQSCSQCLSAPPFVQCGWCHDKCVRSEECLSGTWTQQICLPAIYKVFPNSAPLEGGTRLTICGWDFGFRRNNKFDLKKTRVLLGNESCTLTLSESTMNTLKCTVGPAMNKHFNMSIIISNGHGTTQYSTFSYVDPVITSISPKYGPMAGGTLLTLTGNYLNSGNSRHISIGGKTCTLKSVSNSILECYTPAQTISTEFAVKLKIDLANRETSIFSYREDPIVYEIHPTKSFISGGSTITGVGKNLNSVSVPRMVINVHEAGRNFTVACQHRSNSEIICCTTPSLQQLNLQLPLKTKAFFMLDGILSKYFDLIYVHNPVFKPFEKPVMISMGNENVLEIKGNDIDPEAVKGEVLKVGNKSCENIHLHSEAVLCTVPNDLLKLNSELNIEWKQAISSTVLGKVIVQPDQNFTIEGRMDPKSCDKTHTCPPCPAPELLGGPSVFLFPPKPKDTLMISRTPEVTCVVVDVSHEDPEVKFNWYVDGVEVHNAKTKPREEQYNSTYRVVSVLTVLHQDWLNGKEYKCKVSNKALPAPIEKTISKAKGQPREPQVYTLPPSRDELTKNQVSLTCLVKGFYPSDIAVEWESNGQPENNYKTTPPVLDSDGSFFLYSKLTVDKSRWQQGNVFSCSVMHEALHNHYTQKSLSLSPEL
T2 sequence (P08581 25-307 limits assumed, change not shown): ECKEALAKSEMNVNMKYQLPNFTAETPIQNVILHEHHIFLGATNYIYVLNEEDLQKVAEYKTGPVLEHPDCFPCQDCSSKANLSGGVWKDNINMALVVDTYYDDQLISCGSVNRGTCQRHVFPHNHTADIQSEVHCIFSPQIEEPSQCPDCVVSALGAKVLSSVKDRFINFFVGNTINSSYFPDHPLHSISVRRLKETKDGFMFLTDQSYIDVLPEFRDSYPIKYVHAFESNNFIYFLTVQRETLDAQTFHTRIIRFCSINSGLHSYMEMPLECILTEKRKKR

Row | SMILES | Average tumour:muscle ratio (2 hours p.i.) [1] | fraction unbound (human serum albumin [2]) | Binding human serum albumin (Biacore) (human serum albumin [3]) | Kd (human c-Met/Fc chimera) | remaining at 2 h (in vitro)
1 | CCN(CC)c1ccc2c(c1)OC(C(C)(C)C)=C/C2=C\C=C\C1=[N+](CCCS(=O)(=O)[O-])c2ccc(S(=O)(=O)O)cc2C1(C)CCCC(=O)NCCCC[C@H](NC(=O)CNC(=O)CNC(=O)CNC(=O)[C@@H](NC(=O)CNC(=O)[C@H](CCC(=O)O)NC(=O)[C@@H](NC(=O)[C@H](CCC(=O)O)NC(=O)[C@H](Cc1ccc(O)cc1)NC(=O)[C@@H]1CSSC[C@H](NC(=O)[C@H](CO)NC(=O)CNC(=O)[C@H](C)NC(C)=O)C(=O)N[C@@H](Cc2ccc(O)cc2)C(=O)N[C@H]2CSSC[C@H](NC(=O)[C@H](CCC(=O)O)NC(=O)[C@H](Cc3ccccc3)NC(=O)[C@H](CCCNC(=N)N)NC(=O)[C@@H]3CCCN3C(=O)[C@@H]3CCCN3C(=O)CNC(=O)[C@H](CO)NC2=O)C(=O)N[C@@H](Cc2c[nH]c3ccccc23)C(=O)N1)[C@@H](C)O)[C@@H](C)O)C(N)=O (stereo partly shown) [Compound 2] (Ac-AGSCYCSGPPRFECWCYETEGTGGGK(X9)-NH2; disulfide 4-16, 6-14) | 2.40 |  |  |  | 
2 | CCN(CCCS(=O)(=O)O)c1ccc2c(c1)OC(C(C)(C)C)=C/C2=C\C=C\C1=[N+](CCCCCC(=O)NCCCC[C@H](NC(=O)CNC(=O)CNC(=O)CNC(=O)[C@@H](NC(=O)CNC(=O)[C@H](CCC(=O)O)NC(=O)[C@@H](NC(=O)[C@H](CCC(=O)O)NC(=O)[C@H](Cc2ccc(O)cc2)NC(=O)[C@@H]2CSSC[C@H](NC(=O)[C@H](CO)NC(=O)CNC(=O)[C@H](C)NC(C)=O)C(=O)N[C@@H](Cc3ccc(O)cc3)C(=O)N[C@H]3CSSC[C@H](NC(=O)[C@H](CCC(=O)O)NC(=O)[C@H](Cc4ccccc4)NC(=O)[C@H](CCCNC(=N)N)NC(=O)[C@@H]4CCCN4C(=O)[C@@H]4CCCN4C(=O)CNC(=O)[C@H](CO)NC3=O)C(=O)N[C@@H](Cc3c[nH]c4ccccc34)C(=O)N2)[C@@H](C)O)[C@@H](C)O)C(N)=O)c2ccc(S(=O)(=O)[O-])cc2C1(C)C [Compound 3] (Ac-AGSCYCSGPPRFECWCYETEGTGGGK(X3)-NH2; disulfide 4-16, 6-14) | 1.67 | 0.73 | Low | 0.5 nM | > 95%
3 | CCN1c2cc3c(cc2C(C)=CC1(C)C)/C(=C/C=C/C1=[N+](CCCCCC(=O)NCCCC[C@H](NC(=O)CNC(=O)CNC(=O)CNC(=O)[C@@H](NC(=O)CNC(=O)[C@H](CCC(=O)O)NC(=O)[C@@H](NC(=O)[C@H](CCC(=O)O)NC(=O)[C@H](Cc2ccc(O)cc2)NC(=O)[C@@H]2CSSC[C@H](NC(=O)[C@H](CO)NC(=O)CNC(=O)[C@H](C)NC(C)=O)C(=O)N[C@@H](Cc4ccc(O)cc4)C(=O)N[C@H]4CSSC[C@H](NC(=O)[C@H](CCC(=O)O)NC(=O)[C@H](Cc5ccccc5)NC(=O)[C@H](CCCNC(=N)N)NC(=O)[C@@H]5CCCN5C(=O)[C@@H]5CCCN5C(=O)CNC(=O)[C@H](CO)NC4=O)C(=O)N[C@@H](Cc4c[nH]c5ccccc45)C(=O)N2)[C@@H](C)O)[C@@H](C)O)C(N)=O)c2ccc(S(=O)(=O)[O-])cc2C1(C)C)C=C(C(C)(C)C)O3 [Compound 4] (Ac-AGSCYCSGPPRFECWCYETEGTGGGK(X2)-NH2; disulfide 4-16, 6-14) | 1.52 | 0.45 | Very high | 3.2 nM | > 95%
4 | CCN1c2cc3c(cc2C(C)=CC1(C)C)/C(=C/C=C/C1=[N+](CCCS(=O)(=O)[O-])c2ccc(S(=O)(=O)O)cc2C1(C)CCCC(=O)NCCCC[C@H](NC(=O)CNC(=O)CNC(=O)CNC(=O)[C@@H](NC(=O)CNC(=O)[C@H](CCC(=O)O)NC(=O)[C@@H](NC(=O)[C@H](CCC(=O)O)NC(=O)[C@H](Cc1ccc(O)cc1)NC(=O)[C@@H]1CSSC[C@H](NC(=O)[C@H](CO)NC(=O)CNC(=O)[C@H](C)NC(C)=O)C(=O)N[C@@H](Cc2ccc(O)cc2)C(=O)N[C@H]2CSSC[C@H](NC(=O)[C@H](CCC(=O)O)NC(=O)[C@H](Cc4ccccc4)NC(=O)[C@H](CCCNC(=N)N)NC(=O)[C@@H]4CCCN4C(=O)[C@@H]4CCCN4C(=O)CNC(=O)[C@H](CO)NC2=O)C(=O)N[C@@H](Cc2c[nH]c4ccccc24)C(=O)N1)[C@@H](C)O)[C@@H](C)O)C(N)=O)C=C(C(C)(C)C)O3 (stereo partly shown) [Compound 5] (Ac-AGSCYCSGPPRFECWCYETEGTGGGK(X7)-NH2; disulfide 4-16, 6-14) | 1.22 |  |  |  | 
5 | CC(=O)N[C@@H](C)C(=O)NCC(=O)N[C@@H](CO)C(=O)N[C@H]1CSSC[C@@H](C(=O)N[C@@H](Cc2ccc(O)cc2)C(=O)N[C@@H](CCC(=O)O)C(=O)N[C@H](C(=O)N[C@@H](CCC(=O)O)C(=O)NCC(=O)N[C@H](C(=O)NCC(=O)NCC(=O)NCC(=O)N[C@@H](CCCCNC(=O)CCCC2(C)C(/C=C/C=C3\C=C(C(C)(C)C)Oc4cc5c(cc43)C(C)=CC(C)(C)N5CCCS(=O)(=O)O)=[N+](CCCS(=O)(=O)[O-])c3ccc(S(=O)(=O)O)cc32)C(N)=O)[C@@H](C)O)[C@@H](C)O)NC(=O)[C@H](Cc2c[nH]c3ccccc23)NC(=O)[C@@H]2CSSC[C@H](NC(=O)[C@H](Cc3ccc(O)cc3)NC1=O)C(=O)N[C@@H](CO)C(=O)NCC(=O)N1CCC[C@H]1C(=O)N1CCC[C@H]1C(=O)N[C@@H](CCCNC(=N)N)C(=O)N[C@@H](Cc1ccccc1)C(=O)N[C@@H](CCC(=O)O)C(=O)N2 (stereo partly shown) [Compound 6] (Ac-AGSCYCSGPPRFECWCYETEGTGGGK(X8)-NH2; disulfide 4-16, 6-14) | 1.57 |  |  |  | 
